According to patent US20150315188A1, “COMPOUNDS AND METHODS FOR TREATMENT OF HYPERTENSION” (MEDIVATION TECHNOLOGIES, INC., priority 2012, published 2015):

How the values were obtained:
[1] = target: T1, Human adrenergic α2A receptor (Homo sapiens, UniProt P08913); assay: Radioligand binding, adrenergic α2A (Protocol Group B); set-up: purchased Milipore (Millipore); conditions: Protocol Group B; for inhibition at 0.1 µM: read-out: Percentage inhibition of ligand binding, Adrenergic α2A (0.1 μM); for inhibition at 0.3 µM: read-out: Percentage inhibition of ligand binding, Adrenergic α2A (0.3 μM); for Ki: estimated Ki
T1 sequence (P08913 1-465): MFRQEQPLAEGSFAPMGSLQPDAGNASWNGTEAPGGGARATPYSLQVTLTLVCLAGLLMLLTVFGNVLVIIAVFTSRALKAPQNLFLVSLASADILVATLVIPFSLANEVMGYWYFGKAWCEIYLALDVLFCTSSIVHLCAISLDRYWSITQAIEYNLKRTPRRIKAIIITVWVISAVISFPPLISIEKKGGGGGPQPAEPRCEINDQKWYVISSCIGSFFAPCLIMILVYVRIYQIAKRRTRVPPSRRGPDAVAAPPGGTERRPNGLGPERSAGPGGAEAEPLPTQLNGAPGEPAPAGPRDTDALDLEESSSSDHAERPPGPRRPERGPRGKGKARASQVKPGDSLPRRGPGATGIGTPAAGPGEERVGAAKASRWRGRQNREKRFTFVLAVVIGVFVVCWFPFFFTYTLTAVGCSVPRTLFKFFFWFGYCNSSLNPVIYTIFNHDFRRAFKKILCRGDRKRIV
Summary of the method: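 Membranes from recombinant cells expressing the receptor, in 50 mM Tris-HCl pH 7.4 with 5 mM MgCl2, 1 mM CaCl2, 0.2% BSA; compounds incubated with 2 nM [^3H]MK-912 for 60 min at 25° C. Nonspecific binding defined by 10 μM rauwolscine; filtration, counting; percent inhibition of specific binding, or estimated Ki.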

[2] = target: T2, Human adrenergic α1B receptor (Homo sapiens, UniProt P35368); assay: Radioligand binding, adrenergic α1B (Protocol Group B); set-up: purchased Milipore (Millipore); conditions: Protocol Group B; for inhibition at 0.1 µM: read-out: Percentage inhibition of ligand binding, Adrenergic α1B (0.1 μM); for inhibition at 0.3 µM: read-out: Percentage inhibition of ligand binding, Adrenergic α1B (0.3 μM); for Ki: estimated Ki
T2 sequence (P35368 1-520): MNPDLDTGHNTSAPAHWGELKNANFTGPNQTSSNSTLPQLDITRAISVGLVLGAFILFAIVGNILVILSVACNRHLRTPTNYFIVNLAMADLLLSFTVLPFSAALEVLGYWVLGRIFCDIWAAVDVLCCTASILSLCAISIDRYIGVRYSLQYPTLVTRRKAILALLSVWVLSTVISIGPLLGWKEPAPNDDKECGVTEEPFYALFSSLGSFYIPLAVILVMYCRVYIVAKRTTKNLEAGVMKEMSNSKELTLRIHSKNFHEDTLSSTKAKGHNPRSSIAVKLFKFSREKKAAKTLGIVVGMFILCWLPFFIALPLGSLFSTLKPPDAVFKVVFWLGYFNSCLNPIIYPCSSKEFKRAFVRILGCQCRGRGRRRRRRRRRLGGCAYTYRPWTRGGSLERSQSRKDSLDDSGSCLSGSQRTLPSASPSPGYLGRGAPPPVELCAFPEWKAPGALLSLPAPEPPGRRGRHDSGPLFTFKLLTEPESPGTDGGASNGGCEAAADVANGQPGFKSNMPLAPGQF
Summary of the method: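 Recombinant human α1B membranes incubated with test compound and 0.3 nM [3H]prazosin, 60 min at 25 °C, in 50 mM Tris-HCl pH 7.4, 10 mM MgCl2, 1 mM EDTA; nonspecific binding with 10 μM prazosin. Filter-bound radioactivity counted; values are % inhibition of specific binding or estimated Ki.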

[3] = target: T3, Human adrenergic α2B receptor (Homo sapiens, UniProt P18089); assay: β-Arrestin GPCR functional assay, adrenergic α2B (Protocol B); format: cell-based; conditions: β-arrestin, antagonist vs nor-epinephrine EC80; read-out: IC50 Adrenergic α2B
T3 sequence (P18089 1-450): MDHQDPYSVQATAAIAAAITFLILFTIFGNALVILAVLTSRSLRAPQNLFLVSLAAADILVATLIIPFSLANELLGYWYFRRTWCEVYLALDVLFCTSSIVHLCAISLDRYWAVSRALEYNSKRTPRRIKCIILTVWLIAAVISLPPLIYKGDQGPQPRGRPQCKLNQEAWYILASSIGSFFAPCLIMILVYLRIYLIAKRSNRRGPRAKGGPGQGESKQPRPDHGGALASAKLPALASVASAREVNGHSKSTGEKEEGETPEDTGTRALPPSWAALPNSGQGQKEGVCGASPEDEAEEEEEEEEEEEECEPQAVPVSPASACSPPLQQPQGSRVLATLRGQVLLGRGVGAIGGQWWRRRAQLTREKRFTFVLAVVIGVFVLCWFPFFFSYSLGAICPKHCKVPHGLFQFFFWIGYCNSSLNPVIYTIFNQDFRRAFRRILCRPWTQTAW
Experimental: To evaluate the activity of compounds in β-Arrestin GPCR functional assays, recombinant CHO cell line (DiscoveRX), over expressed with human adrenergic α2B receptor were used. The experiment was done with kit of DiscoveRX as per recommended protocol of the supplier. Cells were harvested from culture flask using cell dissociation solution (CDS) and plated at a density of 12,000 cells/well in CP reagent (supplied with the kit) in a half area 96-well white polystyrene plate. After 24 h incubation at 37° C., compounds at various concentrations in 1% (final) DMSO were charged to the cells for 30 min at 37° C. Active nor-epinephrine (-NE) at its EC80 concentrations (50 nM) were then added to the cells and incubated for another 90 min at 37° C. Detection mix was prepared by mixing of Path Hunter cell assay buffer, Emerald II solution and Galactone star solution in a ratio of 19:5:1 and incubated with the cells for 60 min at RT in the dark. The reading was taken in Envision at luminescence mode. Biochemical assay results are presented as the percent Inhibition in Table B2a, or IC50 values in Table B2b.

[4] = target: T3, Human adrenergic α2B receptor; assay: Radioligand binding, adrenergic α2B (Protocol Group B); set-up: purchased Milipore (Millipore); conditions: Protocol Group B; for inhibition at 0.01 µM: read-out: Percentage inhibition of ligand binding, Adrenergic α2B (10 nM); for inhibition at 0.03 µM: read-out: Percentage inhibition of ligand binding, Adrenergic α2B (30 nM); for Ki: estimated Ki, read-out: Ki α2B; for inhibition at 0.1 µM: read-out: Percentage inhibition of ligand binding, Adrenergic α2B (0.1 μM)
Summary of the method: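 Recombinant human α2B receptor membranes incubated with compounds in 50 mM Tris-HCl pH 7.4, 5 mM MgCl2, 1 mM CaCl2, 0.2% BSA, 1% DMSO vehicle. Non-specific binding defined with 10 μM rauwolscine. Values are percent inhibition of specific binding or estimated Ki.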

Row | inhibition at 0.1 µM ([1]; 0.1 μM compound) | inhibition at 0.3 µM ([1]; 0.3 μM compound) | inhibition at 0.1 µM ([2]; 0.1 μM compound) | inhibition at 0.3 µM ([2]; 0.3 μM compound) | IC50 [3] | inhibition at 0.01 µM ([4]; 10 nM compound) | inhibition at 0.03 µM ([4]; 30 nM compound) | Ki [4] | Ki [1] | Ki [2] | inhibition at 0.1 µM ([4]; 0.1 μM compound) | Percentage inhibition of ligand binding, Adrenergic α2A (0.1 μM) ([1]; 0.1 μM compound, 0.1 µM) | Percentage inhibition of ligand binding, Adrenergic α2A (0.3 μM) ([1]; 0.3 μM compound, 0.3 µM) | Percentage inhibition of ligand binding, Adrenergic α1B (0.1 μM) ([2]; 0.1 μM compound, 0.1 µM) | Percentage inhibition of ligand binding, Adrenergic α1B (0.3 μM) ([2]; 0.3 μM compound, 0.3 µM) | Percentage inhibition of ligand binding, Adrenergic α2B (10 nM) ([4]; 10 nM compound, 0.01 µM) | Percentage inhibition of ligand binding, Adrenergic α2B (30 nM) ([4]; 30 nM compound) | Percentage inhibition of ligand binding, Adrenergic α2B (0.1 μM) ([4]; 0.1 μM compound) | Structure (SMILES)
1 | 10% | 37% | -1% | 26% | 396 nM | 28% | 54% | 7.9 nM | – | – | – | – | – | – | – | – | – | – | Cc1ccc2c(c1)c1c(n2CC(C)(O)c2cnc3ccccc3c2)CCN(C)C1 (single isomer, unassigned) [32a]
2 | 4% | 11% | 3% | 28% | 251 nM | 52% | 80% | 4.6 nM | 5160 nM | 379 nM | 90% | – | – | – | – | – | – | – | Cc1ccc2c(c1)c1c(n2CC(O)c2ccncc2)CNC2CCCC12 (single isomer, unassigned) [34c]
3 | – | – | – | – | 212 nM | – | – | 3.49 nM | 241 nM | 456 nM | – | 25% | 45% | 5% | 17% | 65% | 86% | 96% | Cc1ccc2c(c1)c1c(n2CC(OC2CCCC2)c2ccncc2)CCN(C)C1 (single isomer, unassigned) [35b]

More lines, now with the values behind:

Row | Structure (SMILES) | inhibition at 0.1 µM ([1]; 0.1 μM compound) | inhibition at 0.3 µM ([1]; 0.3 μM compound) | inhibition at 0.1 µM ([2]; 0.1 μM compound) | inhibition at 0.3 µM ([2]; 0.3 μM compound) | IC50 [3] | inhibition at 0.01 µM ([4]; 10 nM compound) | inhibition at 0.03 µM ([4]; 30 nM compound) | Ki [4] | Ki [1] | Ki [2] | inhibition at 0.1 µM ([4]; 0.1 μM compound) | Percentage inhibition of ligand binding, Adrenergic α2A (0.1 μM) ([1]; 0.1 μM compound, 0.1 µM) | Percentage inhibition of ligand binding, Adrenergic α2A (0.3 μM) ([1]; 0.3 μM compound, 0.3 µM) | Percentage inhibition of ligand binding, Adrenergic α1B (0.1 μM) ([2]; 0.1 μM compound, 0.1 µM) | Percentage inhibition of ligand binding, Adrenergic α1B (0.3 μM) ([2]; 0.3 μM compound, 0.3 µM) | Percentage inhibition of ligand binding, Adrenergic α2B (10 nM) ([4]; 10 nM compound, 0.01 µM) | Percentage inhibition of ligand binding, Adrenergic α2B (30 nM) ([4]; 30 nM compound) | Percentage inhibition of ligand binding, Adrenergic α2B (0.1 μM) ([4]; 0.1 μM compound)
4 | Cc1ccc2c(c1)c1c(n2CC(C)(O)c2cnccc2F)CCN(C)C1 (stereo not shown) [compound 40, 1-(2,8-dimethyl-3,4-dihydro-1H-pyrido[4,3-b]indol-5(2H)-yl)-2-(4-fluoropyridin-3-yl)propan-2-ol] | 5% | 19% | -6% | 3% | – | 19% | 44% | – | – | – | 74% | – | – | – | – | – | – | –
5 | Cc1ccc2c(c1)c1c(n2CC(C)(O)c2ccc(N)nc2)CCN(C)C1 (stereo not shown) [compound 47, 2-(6-aminopyridin-3-yl)-1-(2,8-dimethyl-3,4-dihydro-1H-pyrido[4,3-b]indol-5(2H)-yl)propan-2-ol] | 33% | 50% | 3% | 32% | – | 50% | 65% | – | – | – | 83% | – | – | – | – | – | – | –
6 | Cc1ccc2c(c1)c1c(n2CC(OC(C)C)c2ccncc2)CCN(C)C1 (stereo not shown) [compound 49, 5-(2-isopropoxy-2-(pyridin-4-yl)ethyl)-2,8-dimethyl-2,3,4,5-tetrahydro-1H-pyrido[4,3-b]indole] | 28% | 53% | 9% | 40% | – | 50% | 74% | – | – | – | 91% | – | – | – | – | – | – | –
7 | Cc1ccc2c(c1)c1c(n2CC(O)c2ccc(C(=O)N(C)C)nc2)CCN(C)C1 (stereo not shown) [compound 54, 5-(2-(2,8-dimethyl-3,4-dihydro-1H-pyrido[4,3-b]indol-5(2H)-yl)-1-hydroxyethyl)-N,N-dimethylpicolinamide] | -8% | -3% | -5% | 8% | – | 15% | 43% | – | – | – | 66% | – | – | – | – | – | – | –
8 | Cc1ccc2c(c1)c1c(n2CC(O)c2ccc(C(=O)NC3CC3)nc2)CCN(C)C1 (stereo not shown) [compound 55, N-cyclopropyl-5-(2-(2,8-dimethyl-3,4-dihydro-1H-pyrido[4,3-b]indol-5(2H)-yl)-1-hydroxyethyl)picolinamide] | -4% | 3% | 19% | 44% | – | 6% | 24% | – | – | – | 50% | – | – | – | – | – | – | –
9 | Cc1ccc2c(c1)c1c(n2CC(C)(O)c2ccc(OCC3CC3)nc2)CCN(C)C1 (stereo not shown) [compound 56, 2-(6-(cyclopropylmethoxy)pyridin-3-yl)-1-(2,8-dimethyl-3,4-dihydro-1H-pyrido[4,3-b]indol-5(2H)-yl)propan-2-ol] | 1% | 9% | 12% | 38% | – | 17% | 48% | – | – | – | 74% | – | – | – | – | – | – | –
10 | Cc1ccc2c(c1)c1c(n2CC(C)(O)c2cccnc2)CCN(CC(F)F)C1 (stereo not shown) [compound 58, 1-(2-(2,2-difluoroethyl)-8-methyl-3,4-dihydro-1H-pyrido[4,3-b]indol-5(2H)-yl)-2-(pyridin-3-yl)propan-2-ol] | -6% | -1% | -6% | -4% | – | -10% | -4% | – | – | – | -2% | – | – | – | – | – | – | –
11 | Cc1ccc2c(c1)c1c(n2CC(O)c2ccc(C(=O)N3CCCC3)nc2)CCN(C)C1 (stereo not shown) [compound 96, [5-[2-(2,8-dimethyl-3,4-dihydro-1H-pyrido[4,3-b]indol-5-yl)-1-hydroxy-ethyl]-2-pyridyl]-pyrrolidin-1-yl-methanone] | -7% | -9% | -1% | 9% | – | 1% | 21% | – | – | – | – | – | – | – | – | – | – | –
